{"source": "paper PMC6628235", "about": "(Marine Drugs, 2019)", "assay_type_in_all_cases": "biochemical", "key": {"[1]": {"biological_target": "T1, butyrylcholinesterase (BuChE) (Equus caballus, UniProt P81908)", "T1 construct": "gene BCHE", "T1 sequence (P81908 whole entry)": "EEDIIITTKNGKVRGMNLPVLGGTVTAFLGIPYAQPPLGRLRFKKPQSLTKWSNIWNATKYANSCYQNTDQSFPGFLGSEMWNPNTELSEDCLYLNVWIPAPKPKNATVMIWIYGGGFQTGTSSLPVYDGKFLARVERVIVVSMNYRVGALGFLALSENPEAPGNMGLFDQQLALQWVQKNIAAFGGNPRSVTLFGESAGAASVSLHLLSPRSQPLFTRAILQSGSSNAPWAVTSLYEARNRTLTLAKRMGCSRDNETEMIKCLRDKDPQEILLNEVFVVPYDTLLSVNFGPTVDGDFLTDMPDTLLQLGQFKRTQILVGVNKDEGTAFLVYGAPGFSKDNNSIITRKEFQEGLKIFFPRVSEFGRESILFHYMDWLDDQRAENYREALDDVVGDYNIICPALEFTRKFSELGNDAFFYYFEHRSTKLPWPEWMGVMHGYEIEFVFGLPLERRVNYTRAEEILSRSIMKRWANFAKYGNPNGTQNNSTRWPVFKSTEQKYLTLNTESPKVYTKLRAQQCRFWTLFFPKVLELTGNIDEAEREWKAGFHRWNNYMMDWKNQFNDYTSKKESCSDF", "experiment": "modified Ellman's assay, % inhibition at […] (IC50 not determined)"}, "[2]": {"biological_target": "acetylcholinesterase (AChE) (Electrophorus electricus, UniProt O42275)", "sequence (O42275 24-633)": "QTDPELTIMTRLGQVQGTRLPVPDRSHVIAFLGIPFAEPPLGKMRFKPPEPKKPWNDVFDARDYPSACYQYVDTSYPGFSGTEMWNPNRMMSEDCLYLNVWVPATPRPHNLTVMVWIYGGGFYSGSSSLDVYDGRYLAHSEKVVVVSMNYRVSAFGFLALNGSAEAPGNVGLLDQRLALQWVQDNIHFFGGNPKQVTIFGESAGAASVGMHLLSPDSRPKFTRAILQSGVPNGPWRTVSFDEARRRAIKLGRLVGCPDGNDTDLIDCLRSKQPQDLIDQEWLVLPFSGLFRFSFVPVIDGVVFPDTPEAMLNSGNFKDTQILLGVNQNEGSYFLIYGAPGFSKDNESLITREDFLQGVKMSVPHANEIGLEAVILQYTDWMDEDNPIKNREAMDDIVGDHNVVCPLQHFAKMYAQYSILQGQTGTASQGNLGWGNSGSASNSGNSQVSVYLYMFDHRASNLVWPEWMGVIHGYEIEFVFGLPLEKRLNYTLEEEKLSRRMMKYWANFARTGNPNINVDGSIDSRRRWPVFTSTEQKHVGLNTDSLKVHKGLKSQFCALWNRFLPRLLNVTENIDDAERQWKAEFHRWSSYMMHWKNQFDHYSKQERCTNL", "experiment": "modified Ellman's microplate assay ([…] inhibition at […])"}, "[3]": {"biological_target": "T1, butyrylcholinesterase (BuChE)", "experiment": "modified Ellman's assay, positive control, % inhibition at […] (IC50 not determined)"}}, "data": [{"smiles": "CC1=C[C@H](O)[C@]2(CC1=O)C[C@H](O)C(C)(C)O2", "note": "[compound 1, (3S, 5R, 10S)-3,10-dihydroxy-2,2,8-trimethyl-1-oxospiro[4.5]dec-8-en-7-one]", "values": [{"measurement": "inhibition at 6.25 µM", "setting": "[1]", "result": "30.71 ± 0.21", "unit": "%"}]}, {"smiles": "Cc1cc2nc3[nH]c(=O)[nH]c(=O)c3nc2cc1C", "note": "[compound 3, lumichrome]", "values": [{"measurement": "IC50", "setting": "[2]", "result": "12.24 ± 0.12", "unit": "µM"}]}, {"smiles": "COc1ccc2c3c1O[C@H]1C[C@@H](O)C=C[C@@]31CCN(C)C2", "note": "[galantamine]", "values": [{"measurement": "% inhibition at 6.25 μM", "setting": "[3]", "result": "10.34 ± 0.21"}]}]}
